Source: patent US6355799B1, “Substituted benzene compounds, process for their preparation, and herbicidal and defoliant compositions containing them” (ISK Americas Incorporated, priority 1997, dated 2002)

Experiments:
Assay type in all cases: in vivo
[1] = tested on: green foxtail (Setaria viridis, SETVI); assay: Post-emerge test, greenhouse herbicide activity screening; details: phytotoxicity rating 0-100 (0 no damage, 100 complete death), 14 days after application
In short: (§1)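 Rating: 0–100 visual injury, 14 DAA. Application: acetone, 187 l/ha, 15–1000 g ai/ha, flat-fan track sprayer with nozzle 40–45 cm above soil or canopy. Post-emerge runs used 0.25% v/v surfactant on 2–3 leaf plants.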

[2] = tested on: ivyleaf morningglory (Ipomoea hederacea, IPOHE); assay: as above; details: phytotoxicity rating 0-100 (0 no damage, 100 complete death), 14 days after application
In short: as §1

[3] = tested on: sicklepod (Cassia obtusifolia, CASOB); assay: as above; details: phytotoxicity rating 0-100 (0 no damage, 100 complete death), 14 days after application
In short: as §1

[4] = tested on: johnsongrass (Sorghum halepense, SORHA); assay: as above; details: phytotoxicity rating 0-100 (0 no damage, 100 complete death), 14 days after application
In short: as §1

[5] = tested on: redroot pigweed (Amaranthus retroflexus, AMARE); assay: as above; details: phytotoxicity rating 0-100 (0 no damage, 100 complete death), 14 days after application
In short: as §1

[6] = tested on: large crabgrass (Digitaria sanguinalis, DIGSA); assay: as above; details: phytotoxicity rating 0-100 (0 no damage, 100 complete death), 14 days after application
In short: as §1

[7] = tested on: velvetleaf (Abutilon theophrasti, ABUTH); assay: as above; details: phytotoxicity rating 0-100 (0 no damage, 100 complete death), 14 days after application
In short: as §1

[8] = tested on: lambsquarters (Chenopodium album, CHEAL); assay: as above; details: phytotoxicity rating 0-100 (0 no damage, 100 complete death), 14 days after application
In short: as §1

[9] = tested on: barnyardgrass (Echinochloa crus-galli, ECHCG); assay: as above; details: phytotoxicity rating 0-100 (0 no damage, 100 complete death), 14 days after application
In short: as §1

[10] = tested on: redroot pigweed (Amaranthus retroflexus, AMARE); assay: Pre-emerge test, greenhouse herbicide activity screening; details: pre-emerge, rated 14 days after application, 0 = no damage, 100 = complete death
In short: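 Plants grown in 10 cm pots of sandy loam mix received acetone-dissolved compounds through a moving flat-fan nozzle. Doses ranged from 15 to 1000 g ai/ha. Pre-emerge pots were seeded one day earlier, post-emerge pots 8–21 days earlier. Fourteen days on, each pot was graded 0–100 for damage.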

[11] = tested on: upland rice (Oryza sp., var. Tebonnet, RICE); assay: Pre-emerge test, crop safety; details: pre-emerge, rated 14 days after application, 0 = no damage, 100 = complete death
In short: (§2)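 Applied at 15–1000 g ai/ha from acetone in 187 l/ha spray volume. Post-emergence applications included 0.25% v/v non-ionic surfactant and reached plants sown 8–21 days before. Pre-emergence applications were incorporated by surface watering. Efficacy or crop damage was rated on a 0–100 scale after 14 days.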

[12] = tested on: field corn (Zea mays L., var. Dekalb 535, CORN); assay: Pre-emerge test, crop safety; details: pre-emerge, rated 14 days after application, 0 = no damage, 100 = complete death
In short: as §2

[13] = tested on: green foxtail (Setaria viridis, SETVI); assay: Pre-emerge test, greenhouse herbicide activity screening; details: pre-emerge, rated 14 days after application, 0 = no damage, 100 = complete death
In short: (§3)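 Sandy loam pots; pre-emerge: sown 1 d pre-spray, surface-watered after, then bottom-watered. Post-emerge: sown 8–21 d before, 2–3 leaf stage, + 0.25% v/v NIS, bottom-watered. Acetone, 187 l/ha track spray, 15–1000 g ai/ha. 0–100 injury score, day 14.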

[14] = tested on: ivyleaf morningglory (Ipomoea hederacea, IPOHE); assay: as above; details: pre-emerge, rated 14 days after application, 0 = no damage, 100 = complete death
In short: as §3

[15] = tested on: sicklepod (Cassia obtusifolia, CASOB); assay: as above; details: pre-emerge, rated 14 days after application, 0 = no damage, 100 = complete death
In short: as §3

[16] = tested on: johnsongrass (Sorghum halepense, SORHA); assay: as above; details: pre-emerge, rated 14 days after application, 0 = no damage, 100 = complete death
In short: as §3

[17] = tested on: large crabgrass (Digitaria sanguinalis, DIGSA); assay: as above; details: pre-emerge, rated 14 days after application, 0 = no damage, 100 = complete death
In short: as §3

[18] = tested on: velvetleaf (Abutilon theophrasti, ABUTH); assay: as above; details: pre-emerge, rated 14 days after application, 0 = no damage, 100 = complete death
In short: as §3

[19] = tested on: lambsquarters (Chenopodium album, CHEAL); assay: as above; details: pre-emerge, rated 14 days after application, 0 = no damage, 100 = complete death
In short: as §3

[20] = tested on: barnyardgrass (Echinochloa crus-galli, ECHCG); assay: as above; details: pre-emerge, rated 14 days after application, 0 = no damage, 100 = complete death
In short: as §3

[21] = tested on: upland rice (Oryza sp., var. Tebonnet, RICE); assay: Post-emerge test, crop safety; details: phytotoxicity rating 0-100 (0 no damage, 100 complete death), 14 days after application
In short: as §3

[22] = tested on: field corn (Zea mays L., var. Dekalb 535, CORN); assay: Post-emerge test, crop safety; details: phytotoxicity rating 0-100 (0 no damage, 100 complete death), 14 days after application
In short: as §3

Cc1c(Cl)cc(F)c(-n2c(=O)cc(C(F)(F)F)n(C)c2=O)c1N [Compound 1-37]
100: Post-emerge Herbicidal Activity IPOHE ([2]; 63 g ai/ha) | Post-emerge Herbicidal Activity IPOHE ([2]; 250 g ai/ha) | Post-emerge Herbicidal Activity AMARE ([5]; 250 g ai/ha) | Post-emerge Herbicidal Activity ABUTH ([7]; 63 g ai/ha) | Post-emerge Herbicidal Activity ABUTH ([7]; 250 g ai/ha) | Post-emerge Herbicidal Activity CHEAL ([8]; 250 g ai/ha) | Pre-emerge Herbicidal Activity AMARE (phytotoxicity rating, scale 0-100) ([10]; 63 g ai/ha) | Pre-emerge Herbicidal Activity AMARE (phytotoxicity rating, scale 0-100) ([10]; 250 g ai/ha) | Pre-emerge Herbicidal Activity SETVI (phytotoxicity rating, scale 0-100) ([13]; 63 g ai/ha) | Pre-emerge Herbicidal Activity SETVI (phytotoxicity rating, scale 0-100) ([13]; 250 g ai/ha) | Pre-emerge Herbicidal Activity IPOHE (phytotoxicity rating, scale 0-100) ([14]; 63 g ai/ha) | Pre-emerge Herbicidal Activity IPOHE (phytotoxicity rating, scale 0-100) ([14]; 250 g ai/ha) | Pre-emerge Herbicidal Activity CASOB (phytotoxicity rating, scale 0-100) ([15]; 250 g ai/ha) | Pre-emerge Herbicidal Activity SORHA (phytotoxicity rating, scale 0-100) ([16]; 250 g ai/ha) | Pre-emerge Herbicidal Activity DIGSA (phytotoxicity rating, scale 0-100) ([17]; 63 g ai/ha) | Pre-emerge Herbicidal Activity DIGSA (phytotoxicity rating, scale 0-100) ([17]; 250 g ai/ha) | Pre-emerge Herbicidal Activity ABUTH (phytotoxicity rating, scale 0-100) ([18]; 63 g ai/ha) | Pre-emerge Herbicidal Activity ABUTH (phytotoxicity rating, scale 0-100) ([18]; 250 g ai/ha) | Pre-emerge Herbicidal Activity CHEAL (phytotoxicity rating, scale 0-100) ([19]; 63 g ai/ha) | Pre-emerge Herbicidal Activity CHEAL (phytotoxicity rating, scale 0-100) ([19]; 250 g ai/ha) | Pre-emerge Herbicidal Activity ECHCG (phytotoxicity rating, scale 0-100) ([20]; 250 g ai/ha)
65: Post-emerge Herbicidal Activity CASOB ([3]; 63 g ai/ha)
30: Post-emerge Herbicidal Activity ECHCG ([9]; 63 g ai/ha)
60: Pre-emerge crop damage RICE (phytotoxicity rating, scale 0-100) ([11]; 63 g ai/ha) | Post-emerge Herbicidal Activity RICE (crop damage) ([21]; 250 g ai/ha) | Post-emerge Herbicidal Activity CORN (crop damage) ([22]; 250 g ai/ha)
20: Post-emerge Herbicidal Activity SETVI ([1]; 63 g ai/ha)
15: Pre-emerge crop damage CORN (phytotoxicity rating, scale 0-100) ([12]; 63 g ai/ha)
95: Post-emerge Herbicidal Activity CHEAL ([8]; 63 g ai/ha)
25: Post-emerge Herbicidal Activity RICE (crop damage) ([21]; 63 g ai/ha)
70: Post-emerge Herbicidal Activity SORHA ([4]; 250 g ai/ha) | Post-emerge Herbicidal Activity DIGSA ([6]; 250 g ai/ha)
80: Post-emerge Herbicidal Activity SETVI ([1]; 250 g ai/ha) | Pre-emerge Herbicidal Activity CASOB (phytotoxicity rating, scale 0-100) ([15]; 63 g ai/ha)
90: Post-emerge Herbicidal Activity CASOB ([3]; 250 g ai/ha) | Post-emerge Herbicidal Activity AMARE ([5]; 63 g ai/ha) | Post-emerge Herbicidal Activity ECHCG ([9]; 250 g ai/ha) | Pre-emerge crop damage RICE (phytotoxicity rating, scale 0-100) ([11]; 250 g ai/ha) | Pre-emerge crop damage CORN (phytotoxicity rating, scale 0-100) ([12]; 250 g ai/ha) | Pre-emerge Herbicidal Activity SORHA (phytotoxicity rating, scale 0-100) ([16]; 63 g ai/ha) | Pre-emerge Herbicidal Activity ECHCG (phytotoxicity rating, scale 0-100) ([20]; 63 g ai/ha)
10: Post-emerge Herbicidal Activity SORHA ([4]; 63 g ai/ha) | Post-emerge Herbicidal Activity DIGSA ([6]; 63 g ai/ha) | Post-emerge Herbicidal Activity CORN (crop damage) ([22]; 63 g ai/ha)
